In article PMC4457528, “Identification of Novel Small Molecule Inhibitors of Oncogenic RET Kinase” (PLoS ONE, 2015):
Read-outs that look alike come from different tables or passages of the source.

What was measured:
Assay in all cases: KinomeScan kinase panel, single concentration 10 µM
Format in all cases: binding
KinomeScan kinase panel [1] = target: T1, KinomeScan kinase panel (Homo sapiens, UniProt Q9UEE5); conditions: DRAK1, 10 µM; read-out: score (%)
T1 construct: purchased DiscoveRx (KinomeScan)
T1 sequence (Q9UEE5 1-414): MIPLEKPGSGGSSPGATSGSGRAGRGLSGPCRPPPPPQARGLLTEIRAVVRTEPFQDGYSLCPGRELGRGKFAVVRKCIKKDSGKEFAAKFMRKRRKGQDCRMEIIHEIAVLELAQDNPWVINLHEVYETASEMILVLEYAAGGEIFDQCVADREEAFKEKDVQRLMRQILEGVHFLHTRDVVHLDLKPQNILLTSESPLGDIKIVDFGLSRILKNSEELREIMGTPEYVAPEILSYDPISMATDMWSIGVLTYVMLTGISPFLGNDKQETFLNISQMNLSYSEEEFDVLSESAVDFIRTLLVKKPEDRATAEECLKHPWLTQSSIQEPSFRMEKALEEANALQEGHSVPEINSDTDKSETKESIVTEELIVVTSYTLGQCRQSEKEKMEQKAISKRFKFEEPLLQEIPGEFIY

KinomeScan kinase panel [2] = target: T2, KinomeScan kinase panel (Homo sapiens, UniProt P17612); conditions: PKAC-alpha, 10 µM; read-out: score (%)
T2 construct: purchased DiscoveRx (KinomeScan)

KinomeScan kinase panel [3] = target: T3, KinomeScan kinase panel (Homo sapiens, UniProt Q12852); conditions: DLK, 10 µM
T3 construct: purchased DiscoveRx (KinomeScan)
T3 sequence (Q12852 1-859): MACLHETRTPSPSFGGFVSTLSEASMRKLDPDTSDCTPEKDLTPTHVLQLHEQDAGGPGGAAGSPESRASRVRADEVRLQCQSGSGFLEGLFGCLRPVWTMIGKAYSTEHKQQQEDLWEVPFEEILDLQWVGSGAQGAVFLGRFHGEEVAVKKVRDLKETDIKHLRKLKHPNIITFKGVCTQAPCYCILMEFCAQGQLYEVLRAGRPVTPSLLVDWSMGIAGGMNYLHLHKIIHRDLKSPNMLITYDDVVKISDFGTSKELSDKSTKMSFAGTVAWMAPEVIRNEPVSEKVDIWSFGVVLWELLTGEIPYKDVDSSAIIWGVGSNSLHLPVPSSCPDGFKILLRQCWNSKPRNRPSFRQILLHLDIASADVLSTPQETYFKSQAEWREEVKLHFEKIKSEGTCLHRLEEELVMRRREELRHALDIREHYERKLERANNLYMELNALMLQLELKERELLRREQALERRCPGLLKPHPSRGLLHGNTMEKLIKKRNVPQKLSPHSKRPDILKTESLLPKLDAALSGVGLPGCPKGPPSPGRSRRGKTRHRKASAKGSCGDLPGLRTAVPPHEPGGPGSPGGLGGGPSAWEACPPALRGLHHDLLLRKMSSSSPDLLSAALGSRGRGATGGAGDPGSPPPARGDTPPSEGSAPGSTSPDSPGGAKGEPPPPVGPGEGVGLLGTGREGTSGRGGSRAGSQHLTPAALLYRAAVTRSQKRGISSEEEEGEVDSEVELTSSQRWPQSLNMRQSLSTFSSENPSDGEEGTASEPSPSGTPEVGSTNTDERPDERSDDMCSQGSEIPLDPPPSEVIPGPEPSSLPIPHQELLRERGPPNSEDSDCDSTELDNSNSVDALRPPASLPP

KinomeScan kinase panel [4] = target: T4, KinomeScan kinase panel (Homo sapiens, UniProt P08631); conditions: HCK, 10 µM; read-out: score (%)
T4 construct: purchased DiscoveRx (KinomeScan)
T4 sequence (P08631 whole entry): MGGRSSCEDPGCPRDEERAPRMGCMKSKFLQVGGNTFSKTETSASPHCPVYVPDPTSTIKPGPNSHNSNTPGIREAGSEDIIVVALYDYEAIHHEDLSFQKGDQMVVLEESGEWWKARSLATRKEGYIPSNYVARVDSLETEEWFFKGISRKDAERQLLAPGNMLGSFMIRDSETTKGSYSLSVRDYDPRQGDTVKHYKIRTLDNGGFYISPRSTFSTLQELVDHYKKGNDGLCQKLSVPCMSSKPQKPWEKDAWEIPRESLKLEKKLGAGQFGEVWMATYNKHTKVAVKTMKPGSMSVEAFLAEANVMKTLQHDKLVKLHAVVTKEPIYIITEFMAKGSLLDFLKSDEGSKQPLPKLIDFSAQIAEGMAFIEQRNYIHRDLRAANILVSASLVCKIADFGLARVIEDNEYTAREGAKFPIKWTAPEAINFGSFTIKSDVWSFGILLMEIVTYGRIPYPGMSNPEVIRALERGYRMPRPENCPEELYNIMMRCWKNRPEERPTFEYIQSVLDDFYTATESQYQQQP

KinomeScan kinase panel [5] = target: T5, KinomeScan kinase panel (Homo sapiens, UniProt O00238); conditions: BMPR1B, 10 µM; read-out: score (%)
T5 construct: purchased DiscoveRx (KinomeScan)

KinomeScan kinase panel [6] = target: T6, KinomeScan kinase panel (Homo sapiens, UniProt P53350); conditions: PLK1, 10 µM; read-out: score (%)
T6 construct: purchased DiscoveRx (KinomeScan)
T6 sequence (P53350 whole entry): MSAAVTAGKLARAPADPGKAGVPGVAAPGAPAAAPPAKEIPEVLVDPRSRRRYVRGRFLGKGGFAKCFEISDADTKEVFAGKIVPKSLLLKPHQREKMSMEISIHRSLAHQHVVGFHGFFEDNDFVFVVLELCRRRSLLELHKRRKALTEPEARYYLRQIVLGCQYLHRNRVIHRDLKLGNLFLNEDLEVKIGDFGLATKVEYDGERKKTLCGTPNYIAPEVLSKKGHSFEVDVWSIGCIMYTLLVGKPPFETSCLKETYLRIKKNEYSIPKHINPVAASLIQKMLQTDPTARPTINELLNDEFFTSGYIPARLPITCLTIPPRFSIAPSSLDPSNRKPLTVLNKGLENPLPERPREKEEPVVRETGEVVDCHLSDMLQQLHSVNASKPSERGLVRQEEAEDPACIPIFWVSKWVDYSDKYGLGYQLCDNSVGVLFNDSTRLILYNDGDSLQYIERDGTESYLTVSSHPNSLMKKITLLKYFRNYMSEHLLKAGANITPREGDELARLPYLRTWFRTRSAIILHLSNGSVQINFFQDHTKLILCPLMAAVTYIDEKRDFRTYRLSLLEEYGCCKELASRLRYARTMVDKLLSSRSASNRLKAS

KinomeScan kinase panel [7] = target: T7, KinomeScan kinase panel (Homo sapiens, UniProt Q15139); conditions: read-out: score (%)
T7 construct: purchased DiscoveRx (KinomeScan)
T7 sequence (Q15139 1-912): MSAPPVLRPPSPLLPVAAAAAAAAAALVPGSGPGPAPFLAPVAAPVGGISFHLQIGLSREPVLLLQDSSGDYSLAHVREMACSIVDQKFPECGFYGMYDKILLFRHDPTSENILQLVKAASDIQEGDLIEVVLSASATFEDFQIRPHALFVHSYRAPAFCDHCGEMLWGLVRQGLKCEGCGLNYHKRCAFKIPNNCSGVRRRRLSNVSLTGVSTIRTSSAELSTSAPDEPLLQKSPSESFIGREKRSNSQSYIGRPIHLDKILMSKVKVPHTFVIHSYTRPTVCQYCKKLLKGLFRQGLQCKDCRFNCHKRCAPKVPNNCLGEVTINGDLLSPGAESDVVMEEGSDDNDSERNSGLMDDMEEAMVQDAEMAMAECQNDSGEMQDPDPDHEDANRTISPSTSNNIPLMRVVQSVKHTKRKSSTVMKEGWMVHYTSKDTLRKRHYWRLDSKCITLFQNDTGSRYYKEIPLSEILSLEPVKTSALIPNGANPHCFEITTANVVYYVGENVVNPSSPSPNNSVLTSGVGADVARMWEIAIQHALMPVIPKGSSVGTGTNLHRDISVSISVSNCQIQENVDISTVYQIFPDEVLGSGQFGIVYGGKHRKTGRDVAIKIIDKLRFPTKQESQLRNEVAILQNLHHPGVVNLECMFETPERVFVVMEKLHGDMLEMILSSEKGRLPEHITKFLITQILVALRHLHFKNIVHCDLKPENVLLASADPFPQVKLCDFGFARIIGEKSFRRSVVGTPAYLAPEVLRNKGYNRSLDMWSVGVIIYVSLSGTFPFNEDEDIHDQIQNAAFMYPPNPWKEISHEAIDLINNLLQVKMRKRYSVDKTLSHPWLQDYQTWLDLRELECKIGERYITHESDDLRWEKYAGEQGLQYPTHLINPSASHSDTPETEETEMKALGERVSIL

KinomeScan kinase panel [8] = target: T8, KinomeScan kinase panel (Homo sapiens, UniProt Q13131); conditions: AMPK-alpha1, 10 µM; read-out: score (%)
T8 construct: purchased DiscoveRx (KinomeScan)
T8 sequence (Q13131 whole entry): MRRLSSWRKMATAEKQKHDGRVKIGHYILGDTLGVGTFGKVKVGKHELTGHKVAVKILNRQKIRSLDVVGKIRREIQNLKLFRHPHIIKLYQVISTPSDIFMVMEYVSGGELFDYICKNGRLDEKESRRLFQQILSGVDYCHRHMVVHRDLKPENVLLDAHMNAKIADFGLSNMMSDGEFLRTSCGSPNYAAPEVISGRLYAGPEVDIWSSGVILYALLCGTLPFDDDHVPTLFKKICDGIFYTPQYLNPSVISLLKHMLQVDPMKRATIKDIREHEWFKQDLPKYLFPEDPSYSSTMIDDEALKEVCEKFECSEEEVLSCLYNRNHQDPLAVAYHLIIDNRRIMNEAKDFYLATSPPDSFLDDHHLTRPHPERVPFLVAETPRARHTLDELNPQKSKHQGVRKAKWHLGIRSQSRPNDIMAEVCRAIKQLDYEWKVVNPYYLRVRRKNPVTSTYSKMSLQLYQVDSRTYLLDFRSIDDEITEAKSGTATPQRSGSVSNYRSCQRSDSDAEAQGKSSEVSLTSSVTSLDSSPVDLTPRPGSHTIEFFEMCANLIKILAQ

KinomeScan kinase panel [9] = target: T9, KinomeScan kinase panel (Homo sapiens, UniProt P42336); conditions: PIK3CA, 10 µM; read-out: score (%)
T9 construct: purchased DiscoveRx (KinomeScan)
T9 sequence (P42336 whole entry): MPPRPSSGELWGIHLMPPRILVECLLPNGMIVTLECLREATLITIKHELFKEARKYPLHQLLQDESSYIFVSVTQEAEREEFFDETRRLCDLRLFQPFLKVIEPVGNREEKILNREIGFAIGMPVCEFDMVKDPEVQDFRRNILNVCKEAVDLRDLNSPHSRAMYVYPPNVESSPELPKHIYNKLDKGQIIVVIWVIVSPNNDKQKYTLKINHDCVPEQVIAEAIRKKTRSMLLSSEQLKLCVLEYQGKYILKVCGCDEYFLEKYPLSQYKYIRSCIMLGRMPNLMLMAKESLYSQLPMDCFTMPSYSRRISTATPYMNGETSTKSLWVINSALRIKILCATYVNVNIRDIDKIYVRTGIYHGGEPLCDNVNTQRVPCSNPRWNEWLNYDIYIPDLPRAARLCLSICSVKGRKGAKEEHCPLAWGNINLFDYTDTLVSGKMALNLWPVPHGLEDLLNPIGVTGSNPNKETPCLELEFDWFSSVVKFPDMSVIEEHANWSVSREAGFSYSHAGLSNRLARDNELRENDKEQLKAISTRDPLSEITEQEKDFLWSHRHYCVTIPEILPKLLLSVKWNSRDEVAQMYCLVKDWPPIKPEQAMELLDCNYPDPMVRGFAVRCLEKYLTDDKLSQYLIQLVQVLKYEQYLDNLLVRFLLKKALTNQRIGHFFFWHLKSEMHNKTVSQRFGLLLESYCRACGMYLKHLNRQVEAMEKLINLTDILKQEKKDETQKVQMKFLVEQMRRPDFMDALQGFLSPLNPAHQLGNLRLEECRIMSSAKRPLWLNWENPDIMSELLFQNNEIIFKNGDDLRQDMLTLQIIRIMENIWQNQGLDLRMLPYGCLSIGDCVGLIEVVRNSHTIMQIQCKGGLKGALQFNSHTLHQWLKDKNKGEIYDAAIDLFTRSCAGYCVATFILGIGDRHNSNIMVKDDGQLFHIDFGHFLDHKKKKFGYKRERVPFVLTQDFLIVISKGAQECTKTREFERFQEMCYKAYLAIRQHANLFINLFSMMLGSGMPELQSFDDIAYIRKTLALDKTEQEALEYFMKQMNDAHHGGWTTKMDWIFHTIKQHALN

KinomeScan kinase panel [10] = target: T10, KinomeScan kinase panel (Homo sapiens, UniProt P00519); conditions: read-out: score (%)
T10 construct: purchased DiscoveRx (KinomeScan)
T10 sequence (P00519 whole entry): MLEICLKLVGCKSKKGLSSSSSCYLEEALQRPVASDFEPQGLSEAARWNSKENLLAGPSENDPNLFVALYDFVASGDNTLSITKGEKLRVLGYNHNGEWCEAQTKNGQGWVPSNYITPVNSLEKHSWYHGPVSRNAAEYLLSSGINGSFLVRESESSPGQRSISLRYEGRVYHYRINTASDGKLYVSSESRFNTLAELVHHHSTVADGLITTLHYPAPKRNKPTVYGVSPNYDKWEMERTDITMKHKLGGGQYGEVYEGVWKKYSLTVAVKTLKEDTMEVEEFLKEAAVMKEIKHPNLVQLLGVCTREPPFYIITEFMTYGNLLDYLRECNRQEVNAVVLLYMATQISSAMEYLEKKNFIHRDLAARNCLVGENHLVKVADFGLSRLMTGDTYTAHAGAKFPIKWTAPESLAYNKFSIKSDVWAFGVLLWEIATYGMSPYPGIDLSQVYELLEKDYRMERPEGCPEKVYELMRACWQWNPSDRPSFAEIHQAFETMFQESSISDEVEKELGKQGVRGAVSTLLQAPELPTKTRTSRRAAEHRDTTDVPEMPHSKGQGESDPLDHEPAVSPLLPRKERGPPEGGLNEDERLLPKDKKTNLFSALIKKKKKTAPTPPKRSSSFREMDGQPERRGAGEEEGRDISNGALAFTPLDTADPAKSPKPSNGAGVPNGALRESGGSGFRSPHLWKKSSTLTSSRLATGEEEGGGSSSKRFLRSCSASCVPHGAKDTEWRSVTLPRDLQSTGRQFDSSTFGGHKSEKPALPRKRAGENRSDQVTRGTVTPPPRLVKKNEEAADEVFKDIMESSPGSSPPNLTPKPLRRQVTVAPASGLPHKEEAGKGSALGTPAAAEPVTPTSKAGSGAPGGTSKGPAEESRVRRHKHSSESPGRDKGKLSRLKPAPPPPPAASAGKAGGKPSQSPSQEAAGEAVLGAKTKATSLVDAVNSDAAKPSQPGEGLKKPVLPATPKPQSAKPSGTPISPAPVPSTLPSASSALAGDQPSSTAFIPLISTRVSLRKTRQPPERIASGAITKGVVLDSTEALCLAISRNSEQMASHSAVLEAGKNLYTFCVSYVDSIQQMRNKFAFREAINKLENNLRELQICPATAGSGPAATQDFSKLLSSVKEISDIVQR

KinomeScan kinase panel [11] = target: T11, KinomeScan kinase panel (Homo sapiens, UniProt P54764); conditions: EPHA4, 10 µM; read-out: score (%)
T11 construct: purchased DiscoveRx (KinomeScan)
T11 sequence (P54764 20-986): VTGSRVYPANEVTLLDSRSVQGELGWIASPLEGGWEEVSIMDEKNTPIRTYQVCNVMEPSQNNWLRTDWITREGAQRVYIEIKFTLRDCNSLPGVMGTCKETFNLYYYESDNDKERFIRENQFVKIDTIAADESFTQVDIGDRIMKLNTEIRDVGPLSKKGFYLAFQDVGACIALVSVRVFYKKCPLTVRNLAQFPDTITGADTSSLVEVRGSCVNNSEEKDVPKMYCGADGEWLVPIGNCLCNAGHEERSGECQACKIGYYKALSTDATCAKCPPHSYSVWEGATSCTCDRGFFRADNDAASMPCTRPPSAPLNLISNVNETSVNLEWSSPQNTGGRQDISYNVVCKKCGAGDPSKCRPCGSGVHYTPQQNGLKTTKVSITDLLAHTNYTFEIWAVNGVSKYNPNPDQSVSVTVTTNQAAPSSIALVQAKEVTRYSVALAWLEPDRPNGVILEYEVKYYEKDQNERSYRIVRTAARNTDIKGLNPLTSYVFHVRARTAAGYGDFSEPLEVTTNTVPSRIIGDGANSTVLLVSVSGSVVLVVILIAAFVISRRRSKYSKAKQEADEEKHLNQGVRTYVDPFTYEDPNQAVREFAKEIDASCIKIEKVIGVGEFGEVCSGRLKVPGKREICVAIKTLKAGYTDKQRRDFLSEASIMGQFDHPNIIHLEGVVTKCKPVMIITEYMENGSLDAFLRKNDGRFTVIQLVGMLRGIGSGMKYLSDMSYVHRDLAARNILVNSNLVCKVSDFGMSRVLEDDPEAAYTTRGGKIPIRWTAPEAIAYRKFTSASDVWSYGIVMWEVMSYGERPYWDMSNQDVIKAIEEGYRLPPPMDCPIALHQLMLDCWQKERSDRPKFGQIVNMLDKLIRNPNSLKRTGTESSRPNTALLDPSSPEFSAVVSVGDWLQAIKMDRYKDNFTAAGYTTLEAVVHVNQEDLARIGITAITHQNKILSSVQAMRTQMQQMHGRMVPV

SMILES	remaining binding at 10 µM (KinomeScan kinase panel [1])	remaining binding at 10 µM (KinomeScan kinase panel [2])	score (%) (KinomeScan kinase panel [3])	remaining binding at 10 µM (KinomeScan kinase panel [4])	remaining binding at 10 µM (KinomeScan kinase panel [5])	remaining binding at 10 µM (KinomeScan kinase panel [6])	remaining binding at 10 µM (KinomeScan kinase panel [7]; PRKD1, 10 µM)	remaining binding at 10 µM (KinomeScan kinase panel [8])	remaining binding at 10 µM (KinomeScan kinase panel [9])	remaining binding at 10 µM (KinomeScan kinase panel [10]; ABL1, 10 µM)	remaining binding at 10 µM (KinomeScan kinase panel [11])	remaining binding at 10 µM (KinomeScan kinase panel [7]; kinase PRKD1, 10 µM)	remaining binding at 10 µM (KinomeScan kinase panel [10]; ABL1-nonphosphorylated, 10 µM)	remaining binding at 10 µM (KinomeScan kinase panel [10]; ABL1-phosphorylated, 10 µM)
CCN1CCN(Cc2ccc(NC(=O)c3ccc(C)c(NC(=O)c4cncc(-c5cccs5)c4)c3)cc2C(F)(F)F)CC1 [ALW-II-41-27]	> 30%	7.4%	28%	0.2%	> 30%	> 30%	> 30%	> 30%	> 30%	0.05%	0%			
CCN1CCN(Cc2ccc(NC(=O)c3ccc(C)c(/C=C/c4cnc5[nH]ccc5c4Cl)c3)cc2C(F)(F)F)CC1 [HG-6-63-01, (E)-3-(2-(4-chloro-1H-pyrrolo[2,3-b]pyridin-5-yl)vinyl)-N-(4-((4-ethylpiperazin-1-yl)methyl)-3-(trifluoromethyl)phenyl)-4-methylbenzamide]	0.35%	> 30%	5.5%	0.3%	> 30%	> 30%	> 30%	18%	> 30%	0.3%	0.55%			
CCN1CCN(Cc2ccc(NC(=O)c3ccc(C)c(C#Cc4cccnc4)c3)cc2C(F)(F)F)CC1 [XMD15-44]	> 30%	8.4%	9.8%	0.05%	> 30%	58%		1.2%	100%		0%	51%	0%	0%
